From paper PMC10609273, “Radiosynthesis and Early Evaluation of a Positron Emission Tomography Imaging Probe [^18F]AGAL Targeting Alpha-Galactosidase A Enzyme for Fabry Disease” (Molecules, 2023)
Like-named read-outs stand apart in the source and are kept apart here.

Tests used:
Format in all cases: in vitro ADME
[1] = Plasma stability study, mouse
Protocol: Briefly, plasma stability was assessed by incubating compounds in the presence of human (pooled) and mouse (pooled) plasma (Bioreclamation, Westbury, NY, USA). All chemicals and reagents including control compounds were purchased from commercial sources such as Sigma-Aldrich or Toronto Research Chemicals. Plasma incubations were conducted by placing plasma (95 μL) in a 96-well microtiter plate and warming to 37 °C for 5 min. The reaction was initiated with the addition of the test article (5 μL of 20 μM), totaling 100 μL in incubation volume. At 0, 15, 30, 60, and 120 min time points, the reactions were terminated with the addition of acetonitrile-containing carbutamide (as an internal standard). The terminated samples were then centrifuged at 2 °C to pellet the protein, and the supernatant was injected onto an LC–MS. The test article was monitored for loss over time and the t1/2 was determined.

[2] = tested on: P-gp; test: Bidirectional permeability in Caco-2 cells; details: human, Caco-2, with LY335979 5 µM
Protocol: (§1) The Caco-2 cell culture and bidirectional permeability assays used in the study were adapted from previous studies at Takeda. Briefly, Caco-2 cells were obtained from American Type Culture Collection (ATCC) (Manassas, VA, USA) and were cultured in 175 cm^2 tissue culture T-flasks (Corning Life Sciences, Corning, NY, USA). For bidirectional permeability assays, cells were plated onto Costar 24-well culture plates (0.33 cm^2/well, […] (Corning Life Sciences, Corning, NY, USA) by adding 1 × 10^5 cells suspended in 0.2 mL of culture medium (Dulbecco’s modified Eagle’s medium [DMEM] with 0.1 mM non-essential amino acids, 2 mM L-glutamine, 4.5 g/L glucose, and 10% fetal bovine serum [FBS]) to the upper chamber of each well of the 24-well transwell plate. Cell-free culture medium (40 mL) was added to the lower chamber reservoir (Corning Life Sciences, Corning, NY, USA). The transwell plates were then incubated at 37 °C in an atmosphere of 5% CO2 for 25 days to ensure complete enterocyte-like differentiation of the cells, and the culture medium was changed every three to four days during the incubation period. Cell monolayers with transepithelial electrical resistance (TEER) values > 250 ohms × cm^2 were used for the bidirectional permeability assays.
(§2) All chemicals and reagents including control compounds were purchased from commercial sources such as Sigma-Aldrich or synthesized in house (pevonedistat and LY335979). Bidirectional transport studies were performed at 37 °C. Before each experiment, the confluent cell monolayers on transwell inserts were washed and equilibrated for 30 min with transport media (Hank’s Balanced Salt Solution [HBSS] containing 25 mM 4-(2-hydroxyethyl)-1-piperazineethanesulfonic acid [HEPES] and 10 mM glucose, pH 7.4 or 6.5). The bidirectional permeability of 5 µM of the cyclohexane derivative was assessed alone or in the presence of 5 µM LY335979, 5 µM K0143, or 10 µM Elacridar to inhibit P-gp, BCRP, and both efflux transporters, respectively. Additionally, the bi-directional permeability of 5 µM solutions of nadolol (low permeable control marker), minoxidil (high permeable marker), propranolol (high permeable marker), and pevonedistat (efflux transporter control) was also assessed. The experiment was initiated by adding a solution containing the test compounds and LY335979 to either the apical (for apical-to-basolateral [A-to-B] transport) or basolateral (for basolateral-to-apical [B-to-A] transport) compartment. Lucifer yellow (50 µM) was added to each donor chamber in the experiment to serve as a paracellular transport control and to monitor cell monolayer integrity. The apical volume was 0.2 mL and the basolateral volume was 1.0 mL. Bovine serum albumin (BSA, Sigma Aldrich) (5%) was added to the transport media on the receiver side to prevent non-specific binding of the test compound to the polystyrene well. After the addition of test compound into the donor side, […] of the receiving solution were withdrawn from the receiver side at 30 and 60 min. A […] of fresh transport media was immediately added to the receiver side at 30 and 60 min. The samples were placed into 96-well black plates (PerkinElmer Life Sciences, Boston, MA, USA) for fluorescence measurement (excitation at 450 nm and emission at 535 nm). After this measurement, the amounts of cyclohexane derivative and control compounds in each sample were quantified with liquid chromatography–mass spectrometry (LC–MS). The time course of drug transported across cell monolayers was analyzed to determine the time and rate of steady-state flux. The transport rate (total amount of drug present in the receiver chamber per unit time), Papp, and efflux ratio were calculated as described in Equations (4) and (5). […]

[3] = tested on: P-gp and BCRP; test: Bidirectional permeability in Caco-2 cells; details: human, Caco-2, with Elacridar (GF918) 10 µM, 5 µM, + 10 µM Elacridar (GF918) (dual inhibitor of P-gp and BCRP)
Protocol: as §1, §2

[4] = In vitro liver microsomal metabolism study, mouse; details: mouse liver microsomes
Protocol: Metabolic stability was assessed by incubating compounds in the presence of human, rat, and mouse liver microsomal fractions (Xenotech, Kansas City, KS, USA). All chemicals and reagents, including control compounds, were purchased from commercial sources such as Sigma-Aldrich (St. Louis, MO, USA) or Toronto Research Chemicals (North York, ON, Canada). Liver microsomal incubations were conducted with 100 mM phosphate buffer, 0.5 mg/mL of liver microsomal protein, 2 mM NADPH, 2.5 mM UDPGA, 3 mM MgCl2, alamethicin, and 1 μM test article for a total incubation volume of 80 µL. All reagents except the liver microsomes were mixed together and aliquoted (60 μL) into 96-well plates. The reaction was initiated by adding the microsomes (20 μL). At 0, 3, 7, 12, 20, and 30 min time points, the reactions were terminated with the addition of acetonitrile-containing carbutamide (as an internal standard). The terminated samples were then centrifuged at 2 °C to pellet the protein and the supernatant was injected onto an LC–MS. The test article was monitored for loss over time and the t1/2 was determined. The calculated t1/2 was then used as described below to determine the Eh (hepatic extraction ratio) for both human and rat.
The intrinsic clearance (CLint), hepatic clearance (CLh), and hepatic extraction ratio (Eh) were calculated using the equations below. CLint = (0.693/t1/2 in vitro) × (mL incubation volume/mg microsomal protein) × (X mg of microsomal protein/gram of liver) × (Y g of liver/kg of body weight)(1) CLh = Q × CLint/Q + CLint(2) Eh = CLh/Q(3) where: • CLint = intrinsic clearance (calculated from microsomal incubations) • X = 40 for human, 41.5 for rat and 45 for mouse • Y = 21.4 for human, 40 for rat and 50 for mouse • t1/2 = half-life • CLh = hepatic clearance • Q = liver blood flow rate = 1.24 L/h/kg for human, 4.8 L/h/kg for rat, and 5.4 L/h/kg for mouse • Eh = hepatic extraction ratio • CLh = hepatic clearance

[5] = 5 µM, + 5 µM LY335979 (P-gp inhibitor)

Plasma Half-Life, t1/2 ([1]; 37 °C): 9.83 min
parent remaining ([1]; 30 min post-incubation): 18%
half-life at 1 µM ([1]; mouse, pooled plasma, 37 °C, read-out: Plasma Half-Life, t1/2): < 10 min
efflux ratio at 60 min, 5 µM ([2]; by P-gp inhibitor LY335979, read-out: reduction of the efflux ratio): 3
Papp A→B at 60 min, 5 µM [2, 5]: 2.5 nm/s
Papp B→A at 60 min, 5 µM [2, 5]: 9.5 nm/s
efflux ratio at 60 min, 5 µM ([2]; 5 µM, + 5 µM LY335979 (P-gp inhibitor), read-out: Ratio (B/A), efflux ratio): 3.9
Papp A→B at 60 min, 5 µM [3]: 2.5 nm/s
Papp B→A at 60 min, 5 µM [3]: 7.4 nm/s
efflux ratio at 60 min, 5 µM ([3]; read-out: Ratio (B/A), efflux ratio): 2.9
CLh [4]: 4.13 L/h/kg
Eh (hepatic extraction ratio) [4]: 0.766
microsomal stability, clearance in words [4]: highly cleared
CLint scaled at 1 µM ([4]; 1 μM, NADPH + UDPGA): 17.6 L/h/kg
SMILES: O=C(CCCCCCCn1cc(CCCF)nn1)N1[C@@H]2[C@H](O)[C@@H](O)[C@@H](O)[C@@H](CO)[C@@H]21 [AGAL]
